“Also recorded” adds a separate entry of the source.
Assays:
[1] = system: H. parasitica isolates Cala2 and Waco9; assay: Conidiophore counting on H. parasitica-inoculated Arabidopsis seedlings infiltrated with homoserine; type: in vivo, Hyaloperonospora parasitica
Description: The inoculated seedlings were infiltrated with dH2O, D-homoserine (5 mM) or L-homoserine (5 mM) at 3 days post inoculation with the pathogen.
(§1) To test if the effect is specific for homoserine the stereo-isomer D-homoserine was tested. Whole seedlings were infiltrated with water, 5 mM D-homoserine and 5 mM L-homoserine. […] The infiltration was applied to two Arabidopsis accessions, Ler eds1-2 and Ws eds1-1, susceptible to Cala2 and Waco9, respectively. Conidiophore formation was determined as an indicator for H. parsitica susceptibility. Conidiophores were counted 5 days post inoculation with H. parasitica and 2 days post infiltration with water, D-homoserine or L-homoserine. (FIG. 6). […] This was further confirmed by studying pathogen growth in planta by trypan blue staining of Arabidopsis seedlings. Plants were inoculated with isolate Cala2. Two days later the plants were treated by infiltration with water, 5 mM D-homoserine, and 5 mM L-homoserine.

[2] = system: H. parasitica isolate Cala2; assay: Microscopy of trypan blue stained seedlings: growth and development of H. parasitica in planta; type: in vivo, Hyaloperonospora parasitica; conditions: for haustorial development: 5 mM infiltration, microscopy, 40x magnification, FIG. 7b
Description: as §1
Again it is shown that increased levels of homoserine in planta lead to pathogen resistance.

[3] = 5 mM infiltration of whole Arabidopsis seedlings

Row | SMILES | pathogen growth [1, 3] | resistance / susceptibility to H. parasitica [1, 3] | haustorial development [2] | conidiophore formation (number of conidiophores per seedling) ([1]; 5 mM infiltration of whole seedlings, counted 5 days post inoculation, 2 days post infiltration, Ler eds1-2 (Cala2) and Ws eds1-1 (Waco9), FIG. 6) | pathogen growth in planta (trypan blue staining) ([2]; 5 mM infiltration two days after inoculation with Cala2, scored 5 days post inoculation, FIG. 7) | conidiophore formation (microscopy) ([2]; 5 mM infiltration two days after inoculation with Cala2, scored 5 days post inoculation, Ler eds1-2 seedlings, trypan blue, FIG. 7)
1 | N[C@H](CCO)C(=O)O [D-homoserine, reference compound] | did not show a large reduction in pathogen growth | susceptible to H. parasitica | not |  |  | 
2 | N[C@@H](CCO)C(=O)O [L-homoserine] |  | resistant; also recorded: resulted in resistance to H. parasitica | affected; also recorded: disturbed | complete absence of conidiophore formation; also recorded: reduction of conidiophore formation | strongly reduced pathogen growth | No conidiophore formation was detected

Reference: patent US8354570B2, “Disease resistant plants” (Enza Zaden Beheer B.V., priority 2005, dated 2013)
